Experimental data from patent publication US10106542B2, “Substituted 6,7-dihydropyrazolo[1,5-a]pyrazines as negative allosteric modulators of mGluR2 receptors” (Janssen Pharmaceutica NV, priority 2013, dated 2018).

How the values were obtained:
human mGlu2 receptor = target: T1, human mGlu2 receptor (Homo sapiens, UniProt Q14416); assay: [35S]GTPγS binding assay (mGluR2 negative allosteric modulation); format: biochemical
T1 construct: expressed in transfected cells; host or cells: CHO cells (membrane preparation)
T1 sequence (Q14416 19-872): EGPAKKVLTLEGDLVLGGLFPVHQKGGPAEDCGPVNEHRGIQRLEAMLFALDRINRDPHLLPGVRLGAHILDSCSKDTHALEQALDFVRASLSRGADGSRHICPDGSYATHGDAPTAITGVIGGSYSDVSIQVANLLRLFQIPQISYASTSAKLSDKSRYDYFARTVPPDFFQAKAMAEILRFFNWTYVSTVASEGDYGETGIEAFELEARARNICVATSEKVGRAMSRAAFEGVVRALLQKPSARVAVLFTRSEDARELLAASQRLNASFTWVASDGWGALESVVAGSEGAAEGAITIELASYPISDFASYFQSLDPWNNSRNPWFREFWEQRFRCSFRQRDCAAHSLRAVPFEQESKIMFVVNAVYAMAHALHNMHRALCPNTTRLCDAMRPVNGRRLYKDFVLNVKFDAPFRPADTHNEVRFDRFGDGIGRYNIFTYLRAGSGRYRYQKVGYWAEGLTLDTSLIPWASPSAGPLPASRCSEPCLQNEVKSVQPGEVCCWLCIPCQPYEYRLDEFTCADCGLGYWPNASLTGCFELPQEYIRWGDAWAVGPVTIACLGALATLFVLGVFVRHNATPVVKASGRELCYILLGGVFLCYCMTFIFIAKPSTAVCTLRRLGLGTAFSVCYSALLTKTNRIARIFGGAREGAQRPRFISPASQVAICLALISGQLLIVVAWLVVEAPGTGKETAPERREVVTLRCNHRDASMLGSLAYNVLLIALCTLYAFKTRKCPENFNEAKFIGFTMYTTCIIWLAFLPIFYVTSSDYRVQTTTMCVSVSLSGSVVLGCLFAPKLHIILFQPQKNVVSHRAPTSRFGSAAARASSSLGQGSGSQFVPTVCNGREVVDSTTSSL
In short: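 Membranes from butyrate-stimulated CHO cells expressing human mGlu2; 7 μg protein in HEPES pH 7.4, 100 mM NaCl, 3 mM MgCl2, 10 μM GDP, 10 μg/ml saponin. Compound tested against EC80-equivalent glutamate; 0.1 nM [35S]GTPγS, 30 min, 30 °C; filtration, scintillation counting. Data as % of control glutamate response.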

rats = assay: Reversal of the effect of the mGluR2 PAM JNJ-42153605 on scopolamine-induced hyperlocomotion; format: in vivo; conditions: Rattus norvegicus, 1 h, test compound 60 min before recording, criterion total distance >1500 cm
In short: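 Rats pretreated with test compound or vehicle 60 min before recording, given JNJ-42153605 (20 mg/kg, i.v.) at 30 min prior, then scopolamine (0.16 mg/kg, i.v.) immediately before. Total distance travelled over the first 30 min was video-tracked. All-or-none scoring: reversal >1500 cm, normalization >4400 cm.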

[1] = system: rat hippocampal brain slices; assay: Reversal of mGluR2-agonism (LY-354740-depressed fEPSP) in hippocampal brain slices; format: cell-based
From the text: 7) Reversal of mGluR2-Agonism in Hippocampal Brain Slices Introduction
Electrophysiology recordings of field excitatory postsynaptic potentials (fEPSPs) in acute hippocampal brain slices represent a model for testing synaptic transmission and plasticity. The effect of Co. No. 1 on synaptic transmission and plasticity in dentate gyms synapses was investigated using this model.
Recordings of fEPSPs were made from hippocampal brain slices using a multi-electrode array (MEA) biochip, and 3-dimensional-(3D) tip electrodes, according to a standard protocol. These recordings were used to monitor glutamate-mediated synaptic transmission (FIG. 4).

Cc1cc(-c2cnn3c2C(=O)N(c2ccc(C(F)(F)F)cc2)C[C@@H]3C)ccn1 [compound 1, (7S)-7-Methyl-3-(2-methylpyridin-4-yl)-5-[4-(trifluoromethyl)phenyl]-6,7-dihydropyrazolo[1,5-a]pyrazin-4(5H)-one] was tested, and the “GTPγS - hmGluR2 anGT pIC50” value (human mGlu2 receptor; membranes from CHO cells transfected with human mGlu2 receptor, glutamate 60 μM, pIC50 = −log IC50 (M)) was 8.05, the Emax (human mGlu2 receptor; relative maximal effect: maximal % inhibition relative to the control glutamate response, read-out: GTPγS - hmGluR2 anGT Emax) was 106% and the ED50 (rats; Route PO) was 0.45 mg/kg. The ED50 (rats; Route SC) was 3.54 mg/kg, the “paired-pulse ratio (PPR)” value ([1]; 10 μM Co. No. 1 after LY-354740 1 μM) was “decrease of the PPR” and the “recovery of the LY-354740-induced depression of fEPSP” value ([1]; 10 μM, fifteen min after application, LY-354740 1 μM, n=17 slices from 4 rats) was 80%.
